We go through two molecules from publication PMC9079742, “Branched copolymer-stabilised nanoemulsions as new candidate oral drug delivery systems” (RSC Advances, 2018).

One data set deals with Caco-2 monolayers. As to the kind of experiment: Caco-2 transcellular permeation model (transwell). Type of data set: in vitro ADME, human. As to the method:
(§1) The apparent permeability (Papp) of the candidate drug-loaded nanoemulsions were determined using the Caco-2 cells after forming a confluent monolayer, with tight junctions between the cells (confirmed by TEER), on a porous transwell membrane; this is a widely-used model for oral absorption.[34] Within this assay, the cells polarise to present microvilli on the gut (apical; A) side of the cells,[35] reproducing the morphology and function of the small intestine. The blood (basolateral; B) side of the cells models the interface with the systemic circulation. […]
(§2) droplets were below 300 nm in diameter.
(§3) During the 2 minutes, the vial was […]
(§4) to achieve a creamy emulsion. […]
(§5) Caco-2 Transcellular Permeation Model
(§6) After this time, culture media was […]
(§7) and immediately frozen at -40°C for subsequent batch analysis via HPLC. Sink conditions were determined as being satisfied when <10% of starting concentration had permeated. Papp was determined with the following equation: […]
(§8) Where A is the concentration in the sample, T is the time in seconds at which the sample was collected, V is the total volume of sample contained in the chamber being sampled, S is the initial starting concentration of the drug and 0.3 is the surface area in cm2 of the transwell insert on which the Caco-2 […]
(§9) High Performance Liquid Chromatography
(§10) 200 μL of sample (thawed from -40°C storage) was added to 1 ml of HPLC grade acetonitrile in a universal tube and vortexed for 30 seconds. The universal tubes where then centrifuged for 5 minutes at 4°C at 13,300 rpm, after which the supernatant was transferred to fresh glass tubes. These tubes were placed in a vacuum centrifuge drier and heated to 35°C to remove excess acetonitrile and dry down the sample to a pellet. Pellets were then re-suspended in 200 μL fresh 20% HPLC grade acetonitrile, 80% HPLC grade water, and transferred to 1.8 ml HPLC vials and sealed for HPLC analysis.
(§11) The mobile phase (C) consisted of 95% water and 5% acetonitrile, with 5mM final concentration of ammonium formate. The elution buffer (D) consisted of 90% acetonitrile and 10% water with no ammonium formate. A calibration curve was produced using a 1:2 dilution from 20,000 ng/ml to 39 ng/ml, with separate quality control samples at 600 ng/ml, 3000 ng/ml and 15,000 ng/ml. The initial starting conditions of each run were 100% C, changing to 92% D / 8% C after 30 seconds, holding at this percentage for 5 minutes before raising to 100% D for 1 minute. The final 2 minutes of the run returned the column to 100% of C, ready for the injection of the next sample. The EFV was eluted at around 4.3 minutes into the run. The lower limit of quantification was 78 ng/mL, with intraday variability <20% and inter day variability <15%. […]
(§12) Plates were incubated for 5 days at 37°C and 5%
(§13) CO2. Activity of both aqueous and nanoformulations against HIV-1 IIIB was determined by quantifying the amount of live cells in each condition by means of an MTT cell viability assay. Concentrations of […]
(§14) was due solely to HIV infection.
For orientation: Caco-2 cells form a polarised layer with tight junctions and transporters.

Data set [1] in a line: Caco-2 transcellular permeation model (transwell). Type of data set: in vitro ADME, human. The note with it: human, Caco-2; for Papp A→B at 2 h, 10 μM / Papp B→A at 2 h, 10 μM: aq/DMSO solution or castor oil nanoemulsion, N=4. The protocol:
as §1, §2, §3, §4, §5, §6, §7, §8, §9, §10, §11, §12, §13, §14

The nature of data set [2]: Drug solubility in natural oils. The settings on record: oil or lipid. Type of data set: physicochemical.
The nature of a further data set: MTT cytotoxicity assay. The note with it: human, Caco-2 cells, aqueous/DMSO solution. Type of data set: cell-based.
The test system of the next data set is HIV-1 IIIB. Nature of the data set: Antiviral activity assay (MTT viability of infected MT4 cells). Type of data set: cell-based. The settings on record: Human immunodeficiency virus 1, 120 h, HIV-1 IIIB-infected MT4 cells, 5 days incubation, N = 4.
Excerpt: The potential ability to enhance the oral permeability of the antiretroviral drugs LPV and EFV may lead to increased drug absorption and a subsequent decrease in oral dose required to treat HIV patients. Drug permeation through the gut model employed here provides no information about whether free drug or intact nanoemulsions have traversed the epithelium. The potential for nanoemulsions entering the systemic circulation after in vivo absorption necessitates assessment of antiviral activity of the ARV-containing droplets and this was undertaken using HIV-1 IIIB-infected MT4 cells. […] Activity against the virus was determined by using an MTT cell viability assay to assess the number of live cells as viral replication leads to cell death.
Fig. 4 Antiviral activity of aqueous (circles) and nanoemulsion (triangles) formulations containing (A) EFV; and (B) LPV after 5 days incubation with MT4 cells and HIV-1 IIIB. Viral kill was derived by using MTT assay to quantify the metabolic activity of the MT4 cells, using this a proxy of cellular viability. […] Data expressed as ± SEM, N = 4. […]
as §7

Values after ≈ are worked out from the molar mass of the structure shown.

Description for MTT cytotoxicity assay: The inherent cytotoxicity of the branched copolymer was evaluated using the CellTiterGlo® ATP assay whilst the stabilised nanoemulsions were studied using a 3-(4,5-dimethylthiazol-2-yl)-2,5-diphenyltetrazolium bromide (MTT) assay which employs the reduction of MTT to formazan to establish changes in mitochondrial enzyme activity (Fig. S5 ^†).
Cellular Cytotoxicity Assay
Approximately 100,000 cells per 100 L were seeded per well in a 96 well tissue culture plate, leaving
24 hours for cells to adhere to the plate. After this 24-hour period, media was aspirated from all wells
and replaced with fresh complete culture media containing appropriate sample concentrations. A
maximal drug concentration of 10 μM was used, decreasing in a 1:1 dilution series. For blank emulsion
samples were an equivalent volume of nanoemulsion was used to prepare the sample, such that the
volume of nanoemulsion was the same as those in the drug loaded nanoemulsion samples. Plates
were left for between 1 and 5 days, after which time 20 L of 5 mg/mL MTT reagent (3-(4,5-
dimethylthiazol-2-yl)-2,5-diphenyltetrazolium bromide) was added to every well and left for 2 hours. […]
formazan crystals. Plates were then read on a Tecan GENios plate reader (Tecan Group, Manndorf,
Switzerland) reader set to absorbance mode, with wavelength at 560 nm.

Regarding `O=C1Nc2ccc(Cl)cc2[C@@](C#CC2CC2)(C(F)(F)F)O1` [EFV, efavirenz], in the data set with Caco-2 monolayers (Caco-2), the “Difference in permeation, emulsion form versus aqueous DMSO control” value is recorded as “very limited difference”. For the same molecule, in data set [1], the efflux ratio (in general, the permeability from basolateral to apical divided by that in the opposite direction, in the common usage) at 1 h is 3.98; the efflux ratio at 2 h was found to be 3.11; the apparent permeability from apical to basolateral (Papp A→B) – broadly, how fast a substance crosses the layer from the apical side – at 2 h, 10 μM is 8.21 ×10⁻⁶ cm/s; the basolateral-to-apical permeability (Papp B→A) (usually how fast a substance crosses the layer from the basolateral side) at 2 h, 10 μM was determined as 25.5 ×10⁻⁶ cm/s. Also, the solubility (as a rule, the concentration that dissolves in the medium under given conditions) in data set [2] (in castor oil) is not below 50 mg/mL. The solubility in data set [2] (in peanut oil) was not below 50 mg/mL. The solubility in data set [2] (in soybean oil) was not below 50 mg/mL. The 50% cytotoxic concentration (CC50) (in general, the concentration that lowers cell viability or growth by half) in the data set “MTT cytotoxicity assay” came out at 55000 nM. The IC50 (as a rule, the concentration at which inhibition is half-maximal) in the data set on HIV-1 IIIB was approximately 1250 nM.

Consider `Cc1cccc(C)c1OCC(=O)N[C@@H](Cc1ccccc1)[C@@H](O)C[C@H](Cc1ccccc1)NC(=O)[C@H](C(C)C)N1CCCNC1=O` [LPV, lopinavir], for which the “Permeation in emulsion form relative to control within aqueous DMSO vehicle” value in the data set with Caco-2 monolayers (human, Caco-2, 2 h, 10 μM) is “approximately 10 fold”. Moreover, in data set [1], the efflux ratio at 1 h came out at 1.11; the efflux ratio at 2 h worked out at 4.78; the Papp A→B at 2 h, 10 μM was found to be 2.7 ×10⁻⁶ cm/s; the Papp B→A at 2 h, 10 μM was found to be 12.9 ×10⁻⁶ cm/s. The molecule further gave a solubility in data set [2] (in castor oil) of approximately 25 mg/mL (≈ 39.8 mM). In data set [2] (in peanut oil), this molecule yielded a solubility of less than 12 mg/mL. This molecule also displayed a solubility in data set [2] (in soybean oil) of less than 12 mg/mL. This molecule also gave an IC50 in the data set on HIV-1 IIIB of 460 nM.
